Where two headings read alike, the source gives them in different places.

One experiment has as its system DLD-1 BRCA2−/− cells. The experiment can be described thus: Homologous recombination synthetic lethal inhibition of proliferation, DLD-1 BRCA2-/- (Cell Titre Glo 3D). The experiment is classed as cell-based. The note with it: Homo sapiens. An outline of the steps:
(§1)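 Luminescent Cell Titre Glo 3D readout, taken on day 12 for homologous-recombination-deficient DLD-1 BRCA2−/− and day 7 for the wild-type control, after compound refresh on day 6. Compounds spanned 10 μM to 0.51 nM in three-fold steps; IC50 defined as 50% reduction of average maximum signal.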

A further experiment deals with DLD-1 cells. The experiment can be described thus: Inhibition of proliferation, DLD-1 BRCA2 wt control (Cell Titre Glo 3D). Format: cell-based. The note with it: Homo sapiens. The method, boiled down:
as §1

The mark [1] stands for this setting: DLD-1, 288 h, DLD-1 BRCA2−/− cells, 12 days, read-out: POLQ PD Prolif Lumin BRCA2 −/− mean pIC50 (converted).
The mark [2] stands for this setting: DLD-1, 168 h, DLD-1 BRCA2 wt cells, 7 days, read-out: POLQ PD Prolif Lumin DLD1 mean pIC50 (converted).
The mark [3] stands for this setting: DLD-1, DLD-1 BRCA2 −/−, mean, read-out: POLQ PD Prolif Lumin BRCA2 −/− mean pIC50 (converted).
Where [4] appears, read: DLD-1, DLD1 BRCA2 wt, mean, read-out: POLQ PD Prolif Lumin DLD1 mean pIC50 (converted).
The mark [5] stands for this setting: DLD-1, DLD-1 BRCA2 −/− cells, mean, read-out: POLQ PD Prolif Lumin BRCA2 −/− mean pIC50 (converted).
Where [6] appears, read: DLD-1, DLD1 BRCA2 wt cells, mean, read-out: POLQ PD Prolif Lumin DLD1 mean PIC50 (converted).
[7] abbreviates: DLD-1, first proliferation column (c5), DLD-1 BRCA2-/-, read-out: POLQ PD Prolif Lumin (converted).
The mark [8] stands for this setting: DLD-1, second proliferation column (c6), DLD-1 BRCA2 wt control, read-out: POLQ PD Prolif Lumin (converted).

Turning to `CC1(Oc2ncnc3c2nc(-c2ccc(OCCN4CCNC(=O)CC4)cc2Cl)n3Cc2ccccc2)CC1` [Example H21, 1-(2-(4-(9-benzyl-6-(1-methylcyclopropoxy)-9H-purin-8-yl)-3-chlorophenoxy)ethyl)-1,4-diazepan-5-one], the IC50 in the experiment with DLD-1 BRCA2−/− cells (setting [1]) is 63.1 nM; in the experiment on DLD-1 cells (setting [2]), over 10000 nM.

On to `COc1ccc(Cl)cc1Cn1c(-c2ccc(OCCOC(C)(C)C(=O)O)cc2Cl)nc2c(OC3(C)CC3)ncnc21` [Example U54, 2-(2-(3-chloro-4-(9-(5-chloro-2-methoxybenzyl)-6-(1-methylcyclopropoxy)-9H-purin-8-yl)phenoxy)ethoxy)-2-methylpropanoic acid], for which the IC50 was 126 nM in the experiment with DLD-1 BRCA2−/− cells (setting [3]) and over 10000 nM in the experiment with DLD-1 cells (setting [4]).

On to `CN1CCN(CCOc2ccc(-c3nc4c(OC5(C)CC5)ncnc4n3Cc3ccccc3)c(CO)c2)CC1` [Example H10, (2-(9-benzyl-6-(1-methylcyclopropoxy)-9H-purin-8-yl)-5-(2-(4-methylpiperazin-1-yl)ethoxy)phenyl)methanol], for which the IC50 was 794 nM in the experiment with DLD-1 BRCA2−/− cells (setting [1]) and over 10000 nM in the experiment with DLD-1 cells (setting [2]).

For the compound `Cc1ccnc(Cn2c(-c3ccc(OCCN)cc3Cl)nc3c(OC4(C)CC4)ncnc32)c1` [Example T69, 2-(3-chloro-4-(6-(1-methylcyclopropoxy)-9-((4-methylpyridin-2-yl)methyl)-9H-purin-8-yl)phenoxy)ethan-1-amine], the IC50 in the experiment on DLD-1 BRCA2−/− cells (setting [5]) is 200 nM; in the experiment on DLD-1 cells (setting [6]) it was over 10000 nM.

Take `CC1(Oc2ncnc3c2nc(-c2ccc(OCCN4CCNC(=O)C4)cc2Cl)n3Cc2ccccc2)CC1` [Example D15, 4-(2-(4-(9-benzyl-6-(1-methylcyclopropoxy)-9H-purin-8-yl)-3-chlorophenoxy)ethyl)piperazin-2-one]: the IC50 was 79.4 nM in the experiment on DLD-1 BRCA2−/− cells (setting [1]) and over 10000 nM in the experiment on DLD-1 cells (setting [2]).

`Cc1cc(OCCN2CCNCC2)ccc1-c1nc2c(OC(C)C)ncnc2n1Cc1ccccc1` [Example B2, 9-benzyl-6-isopropoxy-8-(2-methyl-4-(2-(piperazin-1-yl)ethoxy)phenyl)-9H-purine]: the IC50 in the experiment on DLD-1 BRCA2−/− cells (setting [1]) was 501 nM; in the experiment on DLD-1 cells (setting [2]), 6310 nM.

With `Cc1cc(Cl)cc(Cn2c(-c3ccc(OCCN4CCNCC4)cc3Cl)nc3c(OC4(C)CC4)ncnc32)n1` [Example T527, 8-(2-chloro-4-(2-(piperazin-1-yl)ethoxy)phenyl)-9-((4-chloro-6-methylpyridin-2-yl)methyl)-6-(1-methylcyclopropoxy)-9H-purine], the IC50 in the experiment with DLD-1 BRCA2−/− cells (setting [7]) is 398 nM; with DLD-1 cells (setting [8]) it was over 6310 nM.

Consider `CC1(Oc2ncnc3c2nc(-c2ccc(OCCCN4CC[C@@H](O)C4)cc2Cl)n3Cc2cc(C(F)(F)F)ccn2)CC1` [Example T554, (R)-1-(3-(3-chloro-4-(6-(1-methylcyclopropoxy)-9-((4-(trifluoromethyl)pyridin-2-yl)methyl)-9H-purin-8-yl)phenoxy)propyl)pyrrolidin-3-ol], for which the IC50 in the experiment with DLD-1 BRCA2−/− cells (setting [7]) is 316 nM; in the experiment on DLD-1 cells (setting [8]) it was over 10000 nM.

In the case of `CC1(Oc2ncnc3c2nc(-c2ccc(OCCN4CCCNCC4=O)cc2Cl)n3Cc2ccccc2)CC1` [Example R12, 1-(2-(4-(9-benzyl-6-(1-methylcyclopropoxy)-9H-purin-8-yl)-3-chlorophenoxy)ethyl)-1,4-diazepan-2-one], the IC50 in the experiment on DLD-1 BRCA2−/− cells (setting [1]) was 100 nM; in the experiment with DLD-1 cells (setting [2]) it was 2510 nM.

Consider `CC1(Oc2ncnc3c2nc(-c2ccc(OCCCN4CCNCC4)cc2Cl)n3Cc2ccccc2)CC1` [Example D18, 9-benzyl-8-(2-chloro-4-(3-(piperazin-1-yl)propoxy)phenyl)-6-(1-methylcyclopropoxy)-9H-purine], for which the results for the IC50 in the experiment with DLD-1 BRCA2−/− cells (setting [1]) and with DLD-1 cells (setting [2]) were 126 nM and 3160 nM, respectively.

As to `CC1(Oc2ncnc3c2nc(-c2ccc(OCCN4CC5(CNC5)C4)cc2Cl)n3Cc2ccccc2)CC1` [Example 18, 8-(4-(2-(2,6-Diazaspiro[3.3]heptan-2-yl)ethoxy)-2-chlorophenyl)-9-benzyl-6-(1-methylcyclopropoxy)-9H-purine], the values for the IC50 in the experiment on DLD-1 BRCA2−/− cells (setting [1]) and in the experiment on DLD-1 cells (setting [2]) were 398 nM and 5010 nM, respectively.

Take `Cc1ccnc(Cn2c(-c3cccc(OCCCN4CC(O)C4)c3Cl)nc3c(OC4(C)CC4)ncnc32)c1` [Example T514, 1-(3-(2-chloro-3-(6-(1-methylcyclopropoxy)-9-((4-methylpyridin-2-yl)methyl)-9H-purin-8-yl)phenoxy)propyl)azetidin-3-ol]: the IC50 with DLD-1 BRCA2−/− cells (setting [7]) is 398 nM; in the experiment on DLD-1 cells (setting [8]), over 10000 nM.

Regarding `CC1(Oc2ncnc3c2nc(-c2ccc(OCCN4CCNCC45CC5)cc2Cl)n3Cc2ccccc2)CC1` [Example R22, 8-(4-(2-(4,7-diazaspiro[2.5]octan-4-yl)ethoxy)-2-chlorophenyl)-9-benzyl-6-(1-methylcyclopropoxy)-9H-purine], the IC50 in the experiment on DLD-1 BRCA2−/− cells (setting [1]) is 251 nM; with DLD-1 cells (setting [2]), 3160 nM.

On to `Cc1cc(OCCN2CCN(C)CC2)cc(C)c1-c1nc2c(OC3(C)CC3)ncnc2n1Cc1ccccc1` [Example H4, 9-benzyl-8-(2,6-dimethyl-4-(2-(4-methylpiperazin-1-yl)ethoxy)phenyl)-6-(1-methylcyclopropoxy)-9H-purine], for which the IC50 with DLD-1 BRCA2−/− cells (setting [1]) was 251 nM; in the experiment on DLD-1 cells (setting [2]) it was over 10000 nM.

Turning to `CC1(Oc2ncnc3c2nc(-c2ccc(OCCN4CCNCC4)cc2Cl)n3Cc2ncc(Cl)s2)CC1` [Example L6, 5-chloro-2-((8-(2-chloro-4-(2-(piperazin-1-yl)ethoxy)phenyl)-6-(1-methylcyclopropoxy)-9H-purin-9-yl)methyl)thiazole], the IC50 in the experiment on DLD-1 BRCA2−/− cells (setting [1]) was 398 nM; in the experiment with DLD-1 cells (setting [2]), over 10000 nM.

`CC1(Oc2ncnc3c2nc(-c2ccc(OCCN4CCNCC4)cc2Cl)n3Cc2cncc(Cl)c2)CC1` [Example T379, 8-(2-chloro-4-(2-(piperazin-1-yl)ethoxy)phenyl)-9-((5-chloropyridin-3-yl)methyl)-6-(1-methylcyclopropoxy)-9H-purine]: the IC50 in the experiment on DLD-1 BRCA2−/− cells (DLD-1, first proliferation column (c5), taken as DLD-1 BRCA2-/-, read-out: POLQ PD Prolif Lumin (converted)) was 251 nM; in the experiment with DLD-1 cells (DLD-1, second proliferation column (c6), taken as DLD-1 BRCA2 wt, read-out: POLQ PD Prolif Lumin (converted)), over 10000 nM.

For the compound `Cc1ccnc(Cn2c(-c3ccc(CC(N)=O)cc3Cl)nc3c(OC4(C)CC4)ncnc32)c1` [Example 30, 2-(3-Chloro-4-(6-(1-methylcyclopropoxy)-9-((4-methylpyridin-2-yl)methyl)-9H-purin-8-yl)phenyl)acetamide], the IC50 in the experiment on DLD-1 BRCA2−/− cells (DLD-1, 288 h, DLD-1 BRCA2−/−, 12 days, Cell Titre Glo 3D, read-out: POLQ PD Prolif Lumin BRCA2 −/− Mean pIC50 (converted)) was 631 nM; with DLD-1 cells (DLD-1, 168 h, DLD-1 (BRCA2 wt control), 7 days, Cell Titre Glo 3D, read-out: POLQ PD Prolif Lumin DLD1 Mean pIC50 (converted)) it was over 10000 nM.

Take `CN1CCN(CCOc2ccc(-c3nc4c(OC5(C)CC5)ncnc4n3Cc3ccccc3)c(Br)c2)CC1` [Example H6, 9-benzyl-8-(2-bromo-4-(2-(4-methylpiperazin-1-yl)ethoxy)phenyl)-6-(1-methylcyclopropoxy)-9H-purine]: the results for the IC50 in the experiment with DLD-1 BRCA2−/− cells (setting [1]) and in the experiment on DLD-1 cells (setting [2]) were 63.1 nM and 5010 nM, respectively.

In the case of `C[C@H](Cn1c(-c2ccc(OCCN3CCNCC3)cc2Cl)nc2c(OC3(C)CC3)ncnc21)c1ccccc1` [Example J9, (S)-8-(2-chloro-4-(2-(piperazin-1-yl)ethoxy)phenyl)-6-(1-methylcyclopropoxy)-9-(2-phenylpropyl)-9H-purine], the IC50 in the experiment on DLD-1 BRCA2−/− cells (setting [1]) is 2510 nM; in the experiment with DLD-1 cells (setting [2]), 5010 nM.

On to `CC1(Oc2ncnc3c2nc(-c2ccc(F)c(OCCC(=O)O)c2Cl)n3Cc2cccc(Cl)c2)CC1` [Example U65, 3-(2-chloro-3-(9-(3-chlorobenzyl)-6-(1-methylcyclopropoxy)-9H-purin-8-yl)-6-fluorophenoxy)propanoic acid], for which the IC50 is 251 nM in the experiment on DLD-1 BRCA2−/− cells (setting [3]) and over 10000 nM with DLD-1 cells (setting [4]).

Regarding `CC(=O)Nc1ccc(-c2nc3c(OC4(C)CC4)ncnc3n2Cc2cc(C)ccn2)c(Cl)c1` [Example T53, N-(3-chloro-4-(6-(1-methylcyclopropoxy)-9-((4-methylpyridin-2-yl)methyl)-9H-purin-8-yl)phenyl)acetamide], the results for the IC50 in the experiment with DLD-1 BRCA2−/− cells (setting [5]) and in the experiment with DLD-1 cells (setting [6]) were 316 nM and over 10000 nM, respectively.

Turning to `Cc1ccnc(Cn2c(-c3ccc(NC(=O)NCCO)cc3Cl)nc3c(OC4(C)CC4)ncnc32)c1` [Example T132, 1-(3-chloro-4-(6-(1-methylcyclopropoxy)-9-((4-methylpyridin-2-yl)methyl)-9H-purin-8-yl)phenyl)-3-(2-hydroxyethyl)urea], the values for the IC50 in the experiment on DLD-1 BRCA2−/− cells (setting [7]) and with DLD-1 cells (setting [8]) were 2000 nM and over 10000 nM, respectively.

On to `Cc1ccnc(Cn2c(-c3ccc(N4CCS(=O)(=O)CC4)cc3Cl)nc3c(OC4(C)CC4)ncnc32)c1` [Example T225, 4-(3-chloro-4-(6-(1-methylcyclopropoxy)-9-((4-methylpyridin-2-yl)methyl)-9H-purin-8-yl)phenyl)thiomorpholine 1,1-dioxide], for which the IC50 with DLD-1 BRCA2−/− cells (DLD-1, DLD-1 BRCA2-/- proliferation, column head only partly shown, read-out: POLQ PD Prolif Lumin (converted)) was 631 nM; with DLD-1 cells (DLD-1, DLD-1 BRCA2 wt control proliferation, column head only partly shown, read-out: POLQ PD Prolif Lumin (converted)) it was over 10000 nM.

The values above are taken from patent US20250195530A1, “POLQ INHIBITORS” (ASTRAZENECA AB, priority 2022, published 2025).
